Tests used:
[1] = Phase 1 trial, rivastigmine and trospium administrations: rivastigmine blood serum concentration time profile (FIG. 2B); conditions: 6 mg rivastigmine fed state one hour after 20 mg trospium fasting (subject 1008) versus simultaneous fasting (1001, 1002, 1005)
Description: Patients 1001, 1002, and 1005 were administered trospium and rivastigmine simultaneously in a fasting state. Subject 1008 was administered trospium and rivastigmine in fasting and fed states, respectively.

[2] = Phase 1 trial, rivastigmine and glycopyrrolate administrations: rivastigmine blood serum concentration time profile (FIG. 2A)
Excerpt: The serum rivastigmine levels were obtained over the course of twelve hours post-administration.

SMILES: CCN(C)C(=O)Oc1cccc([C@H](C)N(C)C)c1 [rivastigmine]
- peak rivastigmine blood serum level, taken with food [1]: attenuated peak rivastigmine levels
- rivastigmine blood serum concentration (time profile) ([2]; patient 1006, co-formulated drug delivery element with glycopyrrolate taken in a fasting state, 12 hours post dose): 10 ng/mL
- adverse effects, separate versus simultaneous administration ([2]; patients 1010 and 1011, glycopyrrolate fasted, rivastigmine with food one hour later): reduced adverse effects, particularly nausea
- peak rivastigmine serum concentration, separate versus simultaneous administration ([2]; patients 1010 and 1011, glycopyrrolate fasted, rivastigmine with food one hour later, compared with patients 1003, 1004 coadministered fasted): delayed peak serum concentration associated with lower peak rivastigmine levels

Reference: patent publication US12109202B2, “Fixed dose combination of cholinesterase inhibitor and a quaternary ammonium antimuscarinic agent to treat neurodegenerative cognitive disorders” (priority 2021, dated 2024)
